The subject of data set [1] is Balb/c 3T3 mouse fibroblasts. Nature of the data set: 3T3 in vitro phototoxicity assay. The format is cell-based. The note with it: Neutral Red uptake; for Phototoxicity factor: Factor=IC50(−UV)/IC50(+UV), cut-off factor >5; for IC50: Mus musculus, BALB/c3T3, light or radiation study, with approx. 5 J/cm2 UVA light. The source says: 3T3 In Vitro Phototoxicity Assay
Phototoxicity is defined as a toxic response that is elicited after the first exposure of the skin to certain chemicals and subsequent exposure to light, or that is induced similarly by skin irradiation after systemic administration of a chemical substance. The assay used in this study is designed to detect the phototoxic potential of a chemical by using a simple in vitro cytotoxicity assay with Balb/c 3T3 mouse fibroblasts. The principle of this test is a comparison of the cytotoxicity of a chemical when tested with and without exposure to a non-toxic dose of UVA-light. Cytotoxicity is expressed as a dose dependent reduction of the growth rate of cells as determined by uptake of the vital dye Neutral Red one day after treatment.
A small amount of substance was weighed and formulated freshly in DMSO just before the start of the exposure of the cells. This stock solution or appropriate dilutions with DMSO were added to the cell suspensions to obtain the required final concentrations. All solutions were generally prepared in Eppendorf caps and discarded after use.
For this study the Neutral Red uptake (NRU) assay of Borenfreund and Puemer (Borenfreund, E, Puemer J A. Toxicity determined in vitro by morphological alterations and Neutral Red absorption. Toxicology Lett. 1985; 24:119-124) modified according to INVITTOX protocol No 78 (ERGATT/FRAME data bank of in vitro techniques in toxicology. INVITTOX PROTOCOL No 78. 3T3 NRU Phototoxicity Assay. March 1994) has been adapted to examine a possible phototoxic potential of the test item. This assay is based on the active uptake of the Neutral Red dye into the lysosomes of cultured murine fibroblasts. Because lysosomal membranes are known to be a site of action of many phototoxic compounds, this assay can provide a measure of potential for phototoxic injury.
A murine fibroblasts clone A 31 (ATCC no. CCL 163—passage No. 108) were cultured in 175 cm2 tissue culture grade flasks, containing sDMEM (Dulbecco's Minimal Essential Medium, supplemented with 10% fetal calf serum, 2 mM L-glutamine, 100 units/ml Penicillin and 100 μg/ml streptomycin) at 37° C. in a humidified atmosphere of 6% C02. Before cells approach confluence they were removed from flasks by trypsinisation. Prior to use in an assay, the cells were transferred to 96-well microtiter plates at a concentration of 1×10^4 cells/well in 100 μl volumes of sDMEM and allowed to attach for 24 h.
For incubation with murine fibroblasts, the test item was diluted in PBS/3% DMSO (detailed concentrations see in results).
Culture medium (Dulbecco's Modified Eagle Medium (DMEM), GlutaMAX (Gibco Ref 21885-025), 10% Fetal Bovine Serum (FBS) (Gibco Ref 10270-106), 100 IU/ml Penicillin and 100 μg/ml Streptomycin (Gibco Ref 15140-122)) was removed from the wells and murine fibroblasts were washed with PBS. Afterwards 100 μL of PBS/3% DMSO containing the test item was added and target cells were incubated for 1 h at 37° C. with 6% CO2.
For each test item the microtiter plates were prepared according to Table 4. “UVA plates” were exposed to approx. 5 J/cm2 UVA light, the “Dark plates” were kept in the dark and served as cytotoxicity control. Plates with chlorpromazine hydrochloride served as positive control. UV flux was measured with a UV-meter (Dr. Gröbel RM21).
Following UV irradiation, the test item was removed from the wells (one washing step with PBS) and replaced with sDMEM. Target cells were then incubated overnight at 37° C. in 6% CO2.
Each plate contained wells with cells and solvent but without test item which were either not incubated with Neutral Red solution (0% standard—S1) or were stained with Neutral Red (100% standard—S2) for calculation of the standard cell viability curve. Wells labeled with U01-U08 contained the different test item concentrations.
After the incubation the wells to be assayed were filled with 100 μL of the sDMEM containing Neutral Red. […]

The nature of data set [2]: Human microsomal stability assay. The format is in vitro ADME. The note with it: human liver microsomes 0.5 mg/mL, 37° C., pH 7.4, NADPH regenerating system, 0-30 minutes. Summed up:
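Human liver microsomes (0.5 mg/mL) with […] compound in 100 mM potassium phosphate, pH 7.4, 37° C; reaction started with NADPH regenerating system after 10 min preincubation. Parent remaining at 0–30 min quantified by LC-MS/MS; clearance binned low (<7.0), medium (7.0-16.2) or high (16.2-23.2) mL/min/kg.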

Take `C[C@@H]1CN(c2ccc(C#N)c3ncccc23)C[C@@H]2c3ccc(N4CC5CNCC(C4)O5)cc3CN12` [Example 14, 5-[(4R,10bS)-4-methyl-8-(9-oxa-3,7-diazabicyclo[3.3.1]nonan-3-yl)-3,4,6,10b-tetrahydro-1H-pyrazino[2,1-a]isoindol-2-yl]quinoline-8-carbonitrile]: in data set [1], the Phototoxicity factor amounted to 1.00 and the 50% inhibitory concentration (IC50) was more than 100 µg/mL. Further, the “CL (h)” value in data set [2] came out at 6.2 mL/min/kg.

`C[C@@H]1CN(c2ccc(C#N)c3ncccc23)C[C@@H]2c3ccc(N4CCOC[C@@H](N)C4)cc3CN12` [Example 54B, 5-[(4R,10bS)-8-[(6S)-6-amino-1,4-oxazepan-4-yl]-4-methyl-3,4,6,10b-tetrahydro-1H-pyrazino[2,1-a]isoindol-2-yl]quinoline-8-carbonitrile]: in data set [1], the Phototoxicity factor was 1.00 and the half-inhibitory concentration (IC50) was more than 100 µg/mL. For the same compound, in data set [2], the “CL (h)” value is given as 7.0 mL/min/kg.

In data set [1], `C[C@@H]1CN(c2ccc(C#N)c3ncccc23)C[C@@H]2c3ccc(N4CC(C)(N)C4)cc3CN12` [Example 39, 5-[(4R,10bS)-8-(3-amino-3-methyl-azetidin-1-yl)-4-methyl-3,4,6,10b-tetrahydro-1H-pyrazino[2,1-a]isoindol-2-yl]quinoline-8-carbonitrile] came in with a Phototoxicity factor of 1.00 and an IC50 of more than 100 µg/mL. Moreover, the “CL (h)” value in data set [2] stood at 6.2 mL/min/kg.

Values taken from US12157746B2, “Tetrahydro-1H-pyrazino[2,1-a]isoindolylquinoline compounds for the treatment of autoimmune disease” (F. HOFFMANN-LA ROCHE AG, priority 2018, dated 2024).
